From ChEMBL document CHEMBL5030560, “Berberine Molecular Recognition of the Parallel MYC G-Quadruplex in Solution” (J Med Chem, 2021)
Active and inactive are the calls of the source. No cut-off for these calls is given here.

Tests used:
Assay type in all cases: nucleic-acid assay
[1] = test system: Quadruplex DNA; test: Binding affinity to human MycG4 DNA (unknown origin) assessed as compound-DNA complex at 3:1 ratio by 1D NMR analysis
[2] = test system: Quadruplex DNA; test: Binding affinity to human MycG4 DNA (unknown origin) assessed as compound-DNA complex at 2:1 ratio by mass spectroscopy
[3] = biological target: Quadruplex DNA; test: Binding affinity to human MycG4 DNA (unknown origin) assessed as apparent dissociation constant by fluorescence based binding assay; settings: read-out: Kd(app)

Activity [1]: Active | Activity [2]: Active | Kd [3]: 9.9 µM
Compound: COc1ccc2cc3[n+](cc2c1OC)CCc1cc2c(cc1-3)OCO2 [BERBERINE]
